Test results from patent US9776995B2, “Bicyclic sulfonamide compounds as sodium channel inhibitors” (AMGEN INC., priority 2013, dated 2017).

Molecular target: Nav 1.7 (Homo sapiens (Human), UniProt Q15858)
Assay: Nav 1.7 in vitro PX assay (PatchXpress whole cell voltage clamp);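 also: holding potential set for 20 to 50% inactivation, sodium current evoked by a 20 ms step to −10 mV, peak current inhibition read after compound exposure, 3–5 cells per concentration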
Assay type: cell-based
[1] = in-vitro Nav 1.7 PX (PatchXpress)
[2] = HEK 293 cells stably transfected with human Nav1.7, PatchXpress, partially inactivated state

Chain of Nav 1.7 (Q15858 whole entry): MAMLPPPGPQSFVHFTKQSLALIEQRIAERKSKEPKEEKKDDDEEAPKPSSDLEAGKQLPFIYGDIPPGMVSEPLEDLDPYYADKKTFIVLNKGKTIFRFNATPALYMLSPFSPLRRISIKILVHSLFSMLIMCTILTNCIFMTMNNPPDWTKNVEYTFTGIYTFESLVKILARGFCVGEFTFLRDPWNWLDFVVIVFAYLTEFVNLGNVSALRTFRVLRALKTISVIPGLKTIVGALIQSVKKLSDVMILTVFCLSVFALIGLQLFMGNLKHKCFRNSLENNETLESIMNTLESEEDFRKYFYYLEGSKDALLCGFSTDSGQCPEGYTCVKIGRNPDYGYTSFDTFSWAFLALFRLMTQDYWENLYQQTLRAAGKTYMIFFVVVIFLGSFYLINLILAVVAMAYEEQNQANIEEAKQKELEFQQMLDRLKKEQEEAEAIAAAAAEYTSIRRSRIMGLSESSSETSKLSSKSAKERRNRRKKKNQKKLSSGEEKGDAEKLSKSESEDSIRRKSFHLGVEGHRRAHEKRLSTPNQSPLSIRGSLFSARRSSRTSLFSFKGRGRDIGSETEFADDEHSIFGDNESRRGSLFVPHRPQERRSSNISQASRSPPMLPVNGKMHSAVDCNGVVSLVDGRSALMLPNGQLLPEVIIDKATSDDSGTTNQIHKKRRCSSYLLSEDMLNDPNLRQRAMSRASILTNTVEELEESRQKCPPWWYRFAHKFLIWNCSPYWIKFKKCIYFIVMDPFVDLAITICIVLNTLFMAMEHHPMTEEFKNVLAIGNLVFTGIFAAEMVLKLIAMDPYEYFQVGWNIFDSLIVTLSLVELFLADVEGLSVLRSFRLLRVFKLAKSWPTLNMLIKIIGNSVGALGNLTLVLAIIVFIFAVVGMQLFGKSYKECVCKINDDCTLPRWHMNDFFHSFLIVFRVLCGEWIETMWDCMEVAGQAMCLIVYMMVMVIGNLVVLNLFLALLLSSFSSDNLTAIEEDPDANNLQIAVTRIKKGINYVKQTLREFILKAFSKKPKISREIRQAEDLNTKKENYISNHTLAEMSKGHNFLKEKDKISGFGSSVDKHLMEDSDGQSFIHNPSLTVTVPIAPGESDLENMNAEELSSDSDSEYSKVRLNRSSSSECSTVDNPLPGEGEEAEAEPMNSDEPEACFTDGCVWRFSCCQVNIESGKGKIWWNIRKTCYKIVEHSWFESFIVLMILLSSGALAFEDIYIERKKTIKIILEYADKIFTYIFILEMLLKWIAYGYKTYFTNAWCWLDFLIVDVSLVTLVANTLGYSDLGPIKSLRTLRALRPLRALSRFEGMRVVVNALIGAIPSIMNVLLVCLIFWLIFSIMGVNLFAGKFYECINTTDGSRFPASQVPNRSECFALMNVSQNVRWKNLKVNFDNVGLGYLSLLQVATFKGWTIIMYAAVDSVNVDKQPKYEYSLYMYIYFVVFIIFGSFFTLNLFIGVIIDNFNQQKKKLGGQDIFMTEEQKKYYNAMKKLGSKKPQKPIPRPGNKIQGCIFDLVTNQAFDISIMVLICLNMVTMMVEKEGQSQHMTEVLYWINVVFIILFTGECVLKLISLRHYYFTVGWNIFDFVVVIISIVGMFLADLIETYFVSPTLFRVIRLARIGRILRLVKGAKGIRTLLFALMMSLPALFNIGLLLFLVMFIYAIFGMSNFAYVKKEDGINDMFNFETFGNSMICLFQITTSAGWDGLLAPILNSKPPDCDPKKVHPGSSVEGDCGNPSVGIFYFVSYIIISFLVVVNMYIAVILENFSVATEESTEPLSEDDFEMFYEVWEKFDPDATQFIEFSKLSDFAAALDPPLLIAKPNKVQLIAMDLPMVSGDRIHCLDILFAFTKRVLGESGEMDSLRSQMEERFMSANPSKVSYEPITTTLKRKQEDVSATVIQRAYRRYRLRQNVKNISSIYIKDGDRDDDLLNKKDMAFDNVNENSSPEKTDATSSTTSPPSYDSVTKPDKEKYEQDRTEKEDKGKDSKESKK

Structure (SMILES): COc1cc(-c2cc(F)cc(Cl)c2)c(C)cc1-c1nccc2cc(S(=O)(=O)Nc3ccon3)ccc12 [Example 285, 1-(3′-chloro-5′-fluoro-5-methoxy-2-methyl-4-biphenylyl)-N-3-isoxazolyl-6-isoquinolinesulfonamide]
- IC50 [1]: 58 nM

Structure (SMILES): COc1cc(-c2cc(C)cc(Cl)c2)c(Cl)cc1-c1ncnc2cc(S(=O)(=O)Nc3ccon3)ccc12 [Example 311, 4-(2,3′-dichloro-5-methoxy-5′-methyl-4-biphenylyl)-N-3-isoxazolyl-7-quinazolinesulfonamide]
- IC50 [1]: 40 nM

Structure (SMILES): CCc1cnc2cc(S(=O)(=O)Nc3ccon3)ccc2c1-c1cc(Cl)c(-c2cccc(F)c2)cc1OC (atropisomer, axis not shown; (P)) [Example 333, (P)-4-(2-chloro-3′-fluoro-5-methoxy-[1,1′-biphenyl]-4-yl)-3-ethyl-N-(isoxazol-3-yl)quinoline-7-sulfonamide]
- IC50 [2]: 591 nM

Structure (SMILES): COc1cc(-c2ccc(Cl)c(C)c2)c(C)cc1-c1ncnc2cc(S(=O)(=O)Nc3ccon3)ccc12 [Example 252, 4-(4′-chloro-5-methoxy-2,3′-dimethyl-4-biphenylyl)-N-3-isoxazolyl-7-quinazolinesulfonamide]
- IC50 (PatchXpress (PX)): 32 nM

Structure (SMILES): COc1cc(-c2cc(C)cc(Cl)c2)c(F)cc1-c1ncnc2cc(S(=O)(=O)Nc3ccon3)ccc12 [Example 297, 4-(3′-chloro-2-fluoro-5-methoxy-5′-methyl-4-biphenylyl)-N-3-isoxazolyl-7-quinazolinesulfonamide]
- IC50 [1]: 74 nM

Structure (SMILES): COc1cc(-c2cc(Cl)ccc2F)c(C)cc1-c1ncnc2cc(S(=O)(=O)Nc3ccon3)ccc12 [Example 557, 4-(5′-chloro-2′-fluoro-5-methoxy-2-methyl-4-biphenylyl)-N-3-isoxazolyl-7-quinazolinesulfonamide]
- IC50 [2]: 56 nM

Structure (SMILES): COc1cc(-c2cc(F)cc(F)c2)c(Cl)cc1-c1nncc2cc(S(=O)(=O)Nc3ccsn3)ccc12 [Example 256, 1-(2-chloro-3′,5′-difluoro-5-methoxy-4-biphenylyl)-N-3-isothiazolyl-6-phthalazinesulfonamide]
- IC50 (PatchXpress (PX)): 85.2 nM

Structure (SMILES): COc1cc(-c2cccc(F)c2)ccc1[C@@H]1c2ccc(S(=O)(=O)Nc3ccon3)cc2CCN1C(C)=O [Example 53-A, (S)-2-ACETYL-1-(3′-FLUORO-3-METHOXY-[1,1′-BIPHENYL]-4-YL)-N-(ISOXAZOL-3-YL)-1,2,3,4-TETRAHYDROISOQUINOLINE-6-SULFONAMIDE]
- IC50 (PatchXpress (PX)): 1090 nM

Structure (SMILES): COc1ccc(F)cc1-c1cc(OC)c(-c2nccc3cc(S(=O)(=O)Nc4ccon4)ccc23)cc1C [Example 280, 1-(5′-fluoro-2′,5-dimethoxy-2-methyl-4-biphenylyl)-N-3-isoxazolyl-6-isoquinolinesulfonamide]
- IC50 [1]: 60.3 nM

Structure (SMILES): COc1cc(-c2cccc(F)c2)c(Cl)cc1-c1c(OC)cnc2cc(S(=O)(=O)Nc3ccon3)ccc12 (atropisomer, axis not shown; (M)) [Example 339, (M)-4-(2-chloro-3′-fluoro-5-methoxy-[1,1′-biphenyl]-4-yl)-N-(isoxazol-3-yl)-3-methoxyquinoline-7-sulfonamide]
- IC50 [2]: 630 nM

Structure (SMILES): COc1cc(-c2cc(C)cc(Cl)c2)c(C)cc1-c1nccc2cc(S(=O)(=O)Nc3ccon3)ccc12 [Example 283, 1-(3′-chloro-5-methoxy-2,5′-dimethyl-4-biphenylyl)-N-3-isoxazolyl-6-isoquinolinesulfonamide]
- IC50 [1]: 37.5 nM

Structure (SMILES): COc1cc(-c2cc(C)cc(F)c2)c(F)cc1-c1ncnc2cc(S(=O)(=O)Nc3ccon3)ccc12 [Example 301, 4-(2,3′-difluoro-5-methoxy-5′-methyl-4-biphenylyl)-N-3-isoxazolyl-7-quinazolinesulfonamide]
- IC50 [1]: 32 nM

Structure (SMILES): COc1cc(C(F)F)c(C2CC2)cc1-c1nccc2cc(S(=O)(=O)Nc3ccon3)ccc12 [Example 251, 1-(5-cyclopropyl-4-(difluoromethyl)-2-methoxyphenyl)-N-3-isoxazolyl-6-isoquinolinesulfonamide]
- IC50 (PatchXpress (PX)): 431 nM

Structure (SMILES): COc1cc(-c2cccc(F)c2)c(Cl)cc1-c1c(OC)nnc2cc(S(=O)(=O)Nc3ccon3)ccc12 [Example 445, 4-(2-CHLORO-3′-FLUORO-5-METHOXY-[1,1′-BIPHENYL]-4-YL)-N-(ISOXAZOL-3-YL)-3-METHOXYCINNOLINE-7-SULFONAMIDE]
- IC50 [2]: 107 nM

Structure (SMILES): COc1cc(-c2cccc(Cl)c2)c(F)cc1-c1ncnc2cc(S(=O)(=O)Nc3ncon3)ccc12 [Example 376, 4-(3′-chloro-2-fluoro-5-methoxy-[1,1′-biphenyl]-4-yl)-N-(1,2,4-oxadiazol-3-yl)quinazoline-7-sulfonamide]
- IC50 [2]: 28 nM

Structure (SMILES): COc1cc(-c2cccc(F)c2)c(Cl)cc1-c1nnc(OC)c2cc(S(=O)(=O)Nc3ccon3)ccc12 [Example 55, 1-(2-CHLORO-3′-FLUORO-5-METHOXY-[1,1′-BIPHENYL]-4-YL)-N-(ISOXAZOL-3-YL)-4-METHOXYPHTHALAZINE-6-SULFONAMIDE]
- IC50 (PatchXpress (PX)): 32.6 nM

Structure (SMILES): COc1cc(-c2cc(C)c(C)cc2C)c(C)cc1-c1ncnc2cc(S(=O)(=O)Nc3ccon3)ccc12 [Example 262, N-3-isoxazolyl-4-(5-methoxy-2,2′,4′,5′-tetramethyl-4-biphenylyl)-7-quinazolinesulfonamide]
- IC50 (PatchXpress (PX)): 62.5 nM

Structure (SMILES): COc1cc(-c2cc(F)cc(F)c2)c(C)cc1-c1ncnc2cc(S(=O)(=O)Nc3ncccn3)ccc12 [Example 438, 4-(3′,5′-DIFLUORO-5-METHOXY-2-METHYL-[1,1′-BIPHENYL]-4-YL)-N-(PYRIMIDIN-2-YL)QUINAZOLINE-7-SULFONAMIDE]
- IC50 [2]: 94 nM

Structure (SMILES): COc1cc(F)c(-c2ccc(F)nc2)cc1-c1nccc2cc(S(=O)(=O)Nc3ccon3)ccc12 [Example 497, 1-(4-fluoro-5-(6-fluoro-3-pyridinyl)-2-methoxyphenyl)-N-3-isoxazolyl-6-isoquinolinesulfonamide]
- IC50 [2]: 479 nM

Structure (SMILES): COc1cc(-c2ccc(C)c(Cl)c2)ccc1-c1nccc2cc(S(=O)(=O)Nc3ccon3)ccc12 [Example 287, 1-(3′-chloro-3-methoxy-4′-methyl-4-biphenylyl)-N-3-isoxazolyl-6-isoquinolinesulfonamide]
- IC50 [1]: 111 nM

Structure (SMILES): COc1ccc(Cl)cc1-c1cc(OC)c(-c2ncnc3cc(S(=O)(=O)Nc4ccon4)ccc23)cc1C [Example 266, 4-(5′-chloro-2′,5-dimethoxy-2-methyl-4-biphenylyl)-N-3-isoxazolyl-7-quinazolinesulfonamide]
- IC50 (PatchXpress (PX)): 18.1 nM

Structure (SMILES): COc1cc(-c2cccc(F)c2)c(Cl)cc1-c1c(N)nnc2cc(S(=O)(=O)Nc3ccon3)ccc12 [Example 446, 3-AMINO-4-(2-CHLORO-3′-FLUORO-5-METHOXY-[1,1′-BIPHENYL]-4-YL)-N-(ISOXAZOL-3-YL)CINNOLINE-7-SULFONAMIDE]
- IC50 [2]: 28 nM

Structure (SMILES): COc1cc(-c2cccc(Cl)c2)c(C)cc1-c1ncnc2cc(S(=O)(=O)Nc3ccon3)ccc12 [Example 264, 4-(3′-chloro-5-methoxy-2-methyl-4-biphenylyl)-N-3-isoxazolyl-7-quinazolinesulfonamide]
- IC50 (PatchXpress (PX)): 12.1 nM

Structure (SMILES): COc1ccc(F)c(-c2cc(OC)c(-c3ncnc4cc(S(=O)(=O)Nc5ccon5)ccc34)cc2C)c1 [Example 561, 4-(2′-fluoro-5,5′-dimethoxy-2-methyl-4-biphenylyl)-N-3-isoxazolyl-7-quinazolinesulfonamide]
- IC50 [2]: 89 nM

Structure (SMILES): COc1cc(-c2cc(F)cc(F)c2)c(Cl)cc1-c1ncnc2cc(S(=O)(=O)Nc3ncccn3)ccc12 [Example 435, 4-(2-CHLORO-3′,5′-DIFLUORO-5-METHOXY-[1,1′-BIPHENYL]-4-YL)-N-(PYRIMIDIN-2-YL)QUINAZOLINE-7-SULFONAMIDE]
- IC50 [2]: 86 nM

Structure (SMILES): COc1cc(-c2cccc(Cl)c2)c(F)cc1-c1c[nH]c(=O)c2cc(S(=O)(=O)Nc3ccon3)ccc12 [Example 343, 4-(3′-chloro-2-fluoro-5-methoxy-[1,1′-biphenyl]-4-yl)-N-(isoxazol-3-yl)-1-oxo-1,2-dihydroisoquinoline-7-sulfonamide]
- IC50 [2]: 163 nM

Structure (SMILES): COc1cc(-c2cccc(F)c2)c(Cl)cc1-c1cccc2cc(S(=O)(=O)Nc3ccon3)ccc12 [Example 291, 5-(2-chloro-3′-fluoro-5-methoxy-4-biphenylyl)-N-3-isoxazolyl-2-naphthalenesulfonamide]
- IC50 [1]: 1160 nM

Structure (SMILES): COc1cc(-c2cccc(Cl)c2)c(C)cc1-c1nccc2cc(S(=O)(=O)Nc3ccon3)ccc12 [Example 277, 1-(3′-chloro-5-methoxy-2-methyl-4-biphenylyl)-N-3-isoxazolyl-6-isoquinolinesulfonamide]
- IC50 (PatchXpress (PX)): 40 nM

Structure (SMILES): COc1cc(Cl)cc(-c2cc(OC)c(-c3ncnc4cc(S(=O)(=O)Nc5ccon5)ccc34)cc2F)c1 [Example 537, 4-(3′-chloro-2-fluoro-5,5′-dimethoxy-4-biphenylyl)-N-3-isoxazolyl-7-quinazolinesulfonamide]
- IC50 [2]: 36 nM

Structure (SMILES): COc1cc(-c2cccc(F)c2)c(Cl)cc1-c1c(C)nnc2cc(S(=O)(=O)Nc3ccon3)ccc12 (atropisomer, axis not shown; (P)) [Example 442, (P)-4-(2-chloro-3′-fluoro-5-methoxy-[1,1′-biphenyl]-4-yl)-N-(isoxazol-3-yl)-3-methylcinnoline-7-sulfonamide]
- IC50 [2]: 251 nM

Structure (SMILES): COc1cc(-c2cc(C)ccc2F)c(C)cc1-c1ncnc2cc(S(=O)(=O)Nc3ccon3)ccc12 [Example 307, 4-(2′-fluoro-5-methoxy-2,5′-dimethyl-4-biphenylyl)-N-3-isoxazolyl-7-quinazolinesulfonamide]
- IC50 [1]: 113 nM

Structure (SMILES): COc1cc(-c2cccc(F)c2)c(Cl)cc1-c1nccc2cc(S(=O)(=O)Nc3ccsn3)ccc12 [Example 254, 1-(2-chloro-3′-fluoro-5-methoxy-4-biphenylyl)-N-3-isothiazolyl-6-isoquinolinesulfonamide]
- IC50 (PatchXpress (PX)): 289 nM

Structure (SMILES): COc1cc(-c2cccc(F)c2)c(Cl)cc1-c1c(C)ncc2cc(S(=O)(=O)Nc3ccon3)ccc12 (atropisomer, axis not shown; (M)) [Example 317, (M)-4-(2-chloro-3′-fluoro-5-methoxy-4-biphenylyl)-N-3-isoxazolyl-3-methyl-7-isoquinolinesulfonamide]
- IC50 [2]: 72 nM

Structure (SMILES): COc1cc(F)cc(-c2cc(OC)c(-c3nccc4cc(S(=O)(=O)Nc5ccon5)ccc34)cc2F)c1 [Example 316, 1-(2,3′-difluoro-5,5′-dimethoxy-4-biphenylyl)-N-3-isoxazolyl-6-isoquinolinesulfonamide]
- IC50 [2]: 40 nM
